# What was measured:
# Cyclin D1 [1] = assay: Western blot of Cyclin D1 in primary MCL cells; type: cell-based, Human
# Description: (§1) Primary MCL cells were isolated from PBMC (with informed patient consent under a protocol approved by IRB) as described before. All the MCL patients were identified as outlined by the World Health Organization (WHO) classification. Human mantle cell lymphoma patient cell lines (Mino and Jeko) were obtained from Dr. Raymond Lai. Primary cells or MCL cell lines were incubated in RPMI 1640 media, supplemented with 10%-20% heat-inactivated fetal bovine serum, 2 mM L-glutamine and penicillin (100 U/mL)/streptomycin ([…]) at 37° C. in an atmosphere of 5% CO2. FTY720 was synthesized as previously described. Toxicity was determined by flow cytometry using Annexin-V-FITC and Propidium Iodide (PI) staining. Apoptotic cells were identified as Annexin-V+ and/or PI+ cells. Cells excluding both FITC and PI were considered viable. Western Blotting was performed as described previously using indicated antibodies. […]
# (§2) FTY720 induced apoptosis is associated with down-modulation of Cyclin D1 and Akt. […] To determine if the FTY720 induced apoptosis is mediated through modulation of these targets relevant to the pathogenesis of the disease, we evaluated the effect of FTY720 on levels of Cyclin D1, p-Akt and Akt proteins by Wester Blotting analysis using specific antibodies in primary MCL cells and cell lines. […]
# [2] = test system: CD19+ B cells from CLL patients; type: cell-based; settings: 0-10 uM FTY720; 15 CLL patients
# Description: Cells: Blood was obtained from patients with B-cell CLL with informed consent under a protocol approved by the hospital internal review board. All patients examined in this series had immunophenotypically defined CLL as outlined by the modified 96 National Cancer Institute criteria. B-CLL cells were isolated from freshly donated blood using ficoll density gradient centrifugation (Ficoll-Paque Plus, Amershan Biosciences, Piscataway, N.J.). Isolated mononuclear cells were incubated in RPMI 1640 media (Gibco/Invitrogen, Carlsbad, Calif.) supplemented with 10% heat-inactivated fetal bovine serum (FBS, Hyclone Laboratories, Logan, Utah), 2 mM L-glutamine (Invitrogen, Carlsbad, Calif.), and penicillin (100 U/mL)/streptomycin (100 μg/ml) [Sigma-Aldrich, St. Louis] at 37° C. in an atmosphere of 5% CO2. Freshly isolated B-CLL cells were used in all experiments described herein. Enriched B-lymphocyte fractions were prepared by using MACS negative selection kit by Miltenyi Biotech (Auburn, Calif.) or by “Rosette-Sep” kit from Stem Cell Technologies (Vancouver, British Columbia, Canada) according to the manufacturer's instructions. Human B-lymphocyte cell lines Raji and Ramos were obtained from ATCC (Manassas, Va.) and the MEC cells were obtained from German cell line bank (Braunschweig, Germany). The 697-neo and 697-Bcl-2 cell lines were kind gift from Dr. John Reed (Burnham Institute, La Jolla, Calif.). Cells were cultured at 37° C. in an atmosphere of 5% CO2 in RPMI 1640 media (Gibco/Invitrogen, Carlsbad, Calif.) supplemented with 10% fetal bovine serum (Gibco/Invitrogen).
# Analysis of cell viability and apoptosis: The cell viability was carried out by dual staining with Annexin V conjugated to flourescein-isothyocyanate (FITC) and Propidium iodide (PI) as described previously. Briefly, 1×10^6 cells were stained with Annexin V-FITC (BD Pharmingen) and Propidium iodide (BD Pharmingen) for 15 minutes in dark and analyzed by flow cytometry using a Beckman-Coulter EPICS XL cytometer (Beckman-Coulter, Miami, Fla.). Apoptotic cells were identified as Annexin V and/or PI positive cells. Cells excluding both FITC and PI were considered to be viable. The Annexin V^−/PI^− cells are represented as % live cells normalized to untreated controls.
# B-CLL cells are reported to be resistant to apoptosis in-vivo. To systematically analyze the effects of FTY720 on B-CLL cells, purified CD19^+ cells from B-CLL patients were incubated with increasing concentrations of FTY720 ranging from 0, 0.5, 1, 1.5, 2.5, 5 or 10 uM. The cytotoxic effects were independently determined by flow cytometry using propidium iodide (PI) and Annexin V conjugated FITC reagents. Populations excluding both PI and Annexin V-FITC staining were considered viable. […]
# Cyclin D1 [3] = assay: Western blot of Cyclin D1 in Mino cell line; type: cell-based, Human
# Description: as §1, §2
# PP2A = PP2A activity (malachite green phosphatase assay) in lysates of CLL cells; type: cell-based, Human; settings: 10 uM FTY720
# Description: PP2A Activity: The protein phosphatase activity of total cellular lysate was determined by measuring the generation of free PO4 from the threonine phosphopeptide using the malachite green-phosphate complex assay as described by the manufacturer (Upstate, Charlottesville, […].). Cell lysates were prepared in a low detergent lysis buffer (1% Nonidet P-40, 10 mM HEPES, 0.5M NaCl, 10% Glycerol, 1 mM PMSF, 5 mM Benzamidine, 10 μg/ml leupeptin). The phosphatase assay was performed in a PP2A-specific reaction buffer (Upstate) using 750 μM phosphopeptide substrate. After 30-min incubation at 30° C. malachite dye was added, and free phosphate was measured by optical density at 650 nm. To avoid variability among different immunoprecipitated samples, the phosphatase activities were normalized with the amount of PP2A immunoprecipitated, as detected and quantified by western blot analysis of each treatment group.
# In order to determine if FTY720 induced activation of PP2A enzyme in CD19^+ B cells from CLL patients were treated with 10 uM FTY720 for 0, 1, 2, 3, 4 and 15 hrs and the PP2A activity in the lysates were quantified using a functional assay following immunoprecipitation of PP2A enzyme. As reported previously in other systems, FTY720 induced a consistent 2-3 fold increase in PP2A activation with the peak response observed at 4 hour post treatment (FIG. 6a). […] Similar phenomenon was also observed in Ramos B cell line. FTY720 induced activation of PP2A in Ramos cell line as early as 3 hours and this induced PP2A activity was inhibited by okadaic acid (FIG. 7a-b).
compound,measurement,setting,value
"CCCCCCCCc1ccc(CCC(N)(CO)CO)cc1.Cl [FTY720, 2-Amino-2-[2-(4-octylphenyl)ethyl]propane 1,3-diol hydrochloride]",down-regulation of Cyclin D1 protein,Cyclin D1 [1]; 8 hrs post treatment,35%
same,down-regulation of Cyclin D1 protein,Cyclin D1 [1]; 24 hrs,70%
same,viability of CD19+ B cells from CLL patients,[2],dose and time dependent decrease in viability
same,reduction in Cyclin D1,Cyclin D1 [3],pronounced inhibition seen as early as 24 hrs
same,increase in PP2A activation,PP2A,2-3 fold
same,time of peak PP2A response,PP2A,4 h

# From patent US8318812B2, “Therapeutic agents for the treatment of lymphoid malignancies” (The Ohio State University Research Foundation, priority 2006, dated 2012)
